Measurements: patent US20220056018A1, “SREBP INHIBITORS COMPRISING A THIOPHENE CENTRAL RING” (Capulus Therapeutics, LLC, priority 2019, published 2022)

What was measured:
Assay in all cases: Cancer cell growth inhibition
Type in all cases: cell-based
SKMEL5 = conditions: Homo sapiens, SK-MEL-5; SKMEL5 (skin), 72 hr treatment
Description: (§1) The ability of select compounds to inhibit cell growth in various cancer cell lines are evaluated. […] The cell lines shown in Table 2 have reduced growth by at least 50% at 10 uM or lower over 72 hr treatment in growth media. The cell lines shown in Table 3 have reduced growth by at least 50% with an IC50 greater than 10 uM.
(§2) Six 10-fold compound dilutions are prepared in DMSO (e.g. 10 mM, 1 mM, 100 uM, 10 uM, 1 uM, and 0.1 uM). Single data points are acquired for each concentration. The final concentration of DMSO is 0.1%. The duration of the treatment is 72 hr. Growth inhibition is measured using Sulforhodamine B in a protein staining assay. Activity of the agents is determined by evaluation the following parameters: IC50, GI50, IC10, TGI, LC50, IC90, and GI90 (where these values can be calculated).

PC3 = conditions: Homo sapiens, PC-3; PC3 (prostate), 72 hr treatment
Description: as §1, §2

RAMOS = conditions: Homo sapiens; RAMOS (hematological), 72 hr treatment
Description: as §1, §2

U2OS = conditions: Homo sapiens; U2OS (bone), 72 hr treatment
Description: as §1, §2

5637 = 5637 (bladder), 72 hr treatment
Description: as §1, §2

HS578T = conditions: Homo sapiens, Hs-578T; HS578T (breast), 72 hr treatment
Description: as §1, §2

CASKI = conditions: Homo sapiens, Ca-Ski; CASKI (endometrial), 72 hr treatment
Description: as §1, §2

SKLMS1 = conditions: Homo sapiens, SK-LMS-1; SKLMS1 (uterus), 72 hr treatment
Description: as §1, §2

EFO21 = conditions: Homo sapiens, EFO-21; EFO21 (ovary), 72 hr treatment
Description: as §1, §2

HT29 = conditions: Homo sapiens, HT-29; HT29 (colon), 72 hr treatment
Description: as §1, §2

SW620 = conditions: Homo sapiens, SW-620; SW620 (colon), 72 hr treatment
Description: as §1, §2

HS729 = HS729 (muscle), 72 hr treatment
Description: as §1, §2

MCF7 = conditions: Homo sapiens; MCF7 (breast), 72 hr treatment
Description: as §1, §2

MDAMB231 = conditions: Homo sapiens, MDA-MB-231; MDAMB231 (breast), 72 hr treatment
Description: as §1, §2

IMR90 = conditions: Homo sapiens, IMR-90; IMR90 (lung), 72 hr treatment
Description: as §1, §2

DLD1 = conditions: Homo sapiens, DLD-1; DLD1 (colon), 72 hr treatment
Description: as §1, §2

CLS439 = CLS439 (bladder), 72 hr treatment
Description: as §1, §2

SKMEL28 = conditions: Homo sapiens, SK-MEL-28; SKMEL28 (skin), 72 hr treatment
Description: as §1, §2

MDAMB468 = conditions: Homo sapiens, MDA-MB-468; MDAMB468 (breast), 72 hr treatment
Description: as §1, §2

T24 = conditions: Homo sapiens, T-24; T24 (bladder), 72 hr treatment
Description: as §1, §2

RDES = conditions: RD-ES; RDES (bone), 72 hr treatment
Description: as §1, §2

K-562 = conditions: Homo sapiens, K562; K-562 (hematological), 72 hr treatment
Description: as §1, §2

ASPC1 = conditions: Homo sapiens; ASPC1 (pancreas), 72 hr treatment
Description: as §1, §2

HELA = conditions: Homo sapiens; HELA (endometrial), 72 hr treatment
Description: as §1, §2

SF268 = conditions: Homo sapiens, SF-268; SF268 (brain), 72 hr treatment
Description: as §1, §2

UMUC3 = conditions: Homo sapiens; UMUC3 (bladder), 72 hr treatment
Description: as §1, §2

OVCAR4 = conditions: Homo sapiens, OVCAR-4; OVCAR4 (ovary), 72 hr treatment
Description: as §1, §2

NCIH292 = conditions: Homo sapiens, NCI-H292; NCIH292 (lung), 72 hr treatment
Description: as §1, §2

SKHEP1 = conditions: Homo sapiens, SK-HEP1; SKHEP1 (liver), 72 hr treatment
Description: as §1, §2

C33A = conditions: Homo sapiens, C-33-A; C33A (endometrial), 72 hr treatment
Description: as §1, §2

PLCPRF5 = conditions: Homo sapiens, PLC-PRF-5; PLCPRF5 (liver), 72 hr treatment
Description: as §1, §2

HL-60 = conditions: Homo sapiens; HL-60 (hematological), 72 hr treatment
Description: as §1, §2

SMILES | IC50 (SKMEL5) | IC50 (PC3) | IC50 (RAMOS) | IC50 (U2OS) | IC50 5637 | IC50 (HS578T) | IC50 (CASKI) | IC50 (SKLMS1) | IC50 (EFO21) | IC50 (HT29) | IC50 (SW620) | IC50 (HS729) | IC50 (MCF7) | IC50 (MDAMB231) | IC50 (IMR90) | IC50 (DLD1) | IC50 (CLS439) | IC50 (SKMEL28) | IC50 (MDAMB468) | IC50 (T24) | further results
CC(C)(CO)c1cc(-c2csc(-c3ccc(NS(C)(=O)=O)cc3Cl)c2)ccn1 [Compound I-8909, N-(3-chloro-4-(4-(2-(1-hydroxy-2-methylpropan-2-yl)pyridin-4-yl)thiophen-2-yl)phenyl)methanesulfonamide] | < 10 µM | > 10 µM | < 10 µM | > 10 µM | < 10 µM | > 10 µM | > 10 µM | > 10 µM | < 10 µM | < 10 µM | > 10 µM | > 10 µM | < 10 µM | > 10 µM | > 10 µM | < 10 µM | > 10 µM | < 10 µM | < 10 µM | > 10 µM | IC50 (RDES): > 10 µM; IC50 (K-562): < 10 µM; IC50 (ASPC1): < 10 µM; IC50 (HELA): < 10 µM; IC50 (SF268): < 10 µM; IC50 (UMUC3): < 10 µM; IC50 (OVCAR4): < 10 µM; IC50 (NCIH292): < 10 µM; IC50 (SKHEP1): < 10 µM; IC50 (C33A): < 10 µM; IC50 (PLCPRF5): < 10 µM; IC50 (HL-60): < 10 µM
CC(C)(O)Cc1cc(-c2csc(-c3ccc(NS(C)(=O)=O)cc3Cl)c2)ccn1 [Compound I-9004, N-(3-chloro-4-(4-(2-(2-hydroxy-2-methylpropyl)pyridin-4-yl)thiophen-2-yl)phenyl)methanesulfonamide] | < 10 µM | > 10 µM | < 10 µM | > 10 µM | > 10 µM | > 10 µM | > 10 µM | > 10 µM | < 10 µM | < 10 µM | > 10 µM | > 10 µM | < 10 µM | > 10 µM | > 10 µM | < 10 µM | > 10 µM | < 10 µM | < 10 µM | > 10 µM | IC50 (RDES): > 10 µM; IC50 (K-562): < 10 µM; IC50 (ASPC1): < 10 µM; IC50 (HELA): < 10 µM; IC50 (SF268): < 10 µM; IC50 (UMUC3): < 10 µM; IC50 (OVCAR4): < 10 µM; IC50 (NCIH292): < 10 µM; IC50 (SKHEP1): < 10 µM; IC50 (C33A): < 10 µM; IC50 (PLCPRF5): < 10 µM; IC50 (HL-60): < 10 µM
CS(=O)(=O)Nc1ccc(-c2cc(-c3ccnc4c3OCCO4)cs2)c(Cl)c1 [Compound I-9017, N-(3-chloro-4-(4-(2,3-dihydro-[1,4]dioxino[2,3-b]pyridin-8-yl)thiophen-2-yl)phenyl)methanesulfonamide] | < 10 µM | > 10 µM | < 10 µM | < 10 µM | < 10 µM | > 10 µM | > 10 µM | > 10 µM | < 10 µM | < 10 µM | < 10 µM | > 10 µM | < 10 µM | > 10 µM | > 10 µM | < 10 µM | < 10 µM | < 10 µM | < 10 µM | < 10 µM | IC50 (RDES): < 10 µM; IC50 (K-562): < 10 µM; IC50 (ASPC1): < 10 µM; IC50 (HELA): < 10 µM; IC50 (SF268): < 10 µM; IC50 (UMUC3): < 10 µM; IC50 (OVCAR4): < 10 µM; IC50 (NCIH292): < 10 µM; IC50 (SKHEP1): < 10 µM; IC50 (C33A): < 10 µM; IC50 (PLCPRF5): < 10 µM; IC50 (HL-60): < 10 µM
